Measurements as given in PMC11641860 (International Journal of Molecular Sciences, 2024).

Legend:
HEK 293 cells = test: cells; assay type: cell-based; details: Homo sapiens, HEK293; HEK 293, treated for 24 h, mean (SE); read-out: calculated IC50
Protocol: (§1) To evaluate cell viability, an MTT assay was performed. […] Cell viability was directly proportional to registered absorbance and was expressed as relative viability with respect to vehicle-treated cells.

MRC5 cells = test: cells; assay type: cell-based; details: Homo sapiens; MRC5, treated for 24 h, mean (SE); read-out: calculated IC50
Protocol: as §1

HaCat cells = test: cells; assay type: cell-based; details: Homo sapiens, treated for 24 h, mean (SE), read-out: calculated IC50
Protocol: as §1

Caco-2 cells = test: cells; assay type: cell-based; details: Homo sapiens; Caco-2, treated for 24 h, mean (SE); read-out: calculated IC50
Protocol: as §1

HepG2 cells [1] = test: cells; assay type: cell-based; details: Homo sapiens; HepG2, treated for 24 h, mean (SE); read-out: calculated IC50
Protocol: as §1

p62, LC3-II = test: Western blot of autophagic markers p62 and LC3-II; assay type: cell-based, human
Protocol: (§2) Western blot analyses were performed to detect protein levels and the expression of several proteins after treatments with 4-OP. After treatments, cells were mechanically harvested and lysed in a buffer containing the following: 20 mM Tris-HCl, pH 7.5, 150 mM NaCl, 1 mM EDTA, 1 mM dithiothreitol, 0.1% sodium dodecyl sulfate, 1% Triton X-100, 1 mM orthovanadate and an inhibitor cocktail (all from Merck). The protein mixtures were resolved in a polyacrylamide denaturant gel and then electrotransferred to a polyvinylidene difluoride (PVDF) membrane (Microtech, Naples, Italy) by using the Trans-Blot Turbo Transfer System (Bio-Rad Laboratories, Milan, Italy). After a blocking step with 5% skimmed milk in Tris-buffered saline (TBS), membranes were incubated with the following primary antibodies, diluted 1:1000 in T-TBS-1% milk: mouse anti-p53 (Santa Cruz, CA, USA); mouse anti-GRP78 (Invitrogen, Milan, Italy); rabbit anti-LC3 (Invitrogen); mouse anti-caspase 3 (Invitrogen); mouse anti-p62 (Invitrogen); rabbit anti-SOD (Elabscience, Houston, TX, USA); rabbit anti-CAT (Elabscience). For normalization, a mouse anti-GAPDH (Santa Cruz) diluted 1:4000 in T-TBS-1% milk was used.

CAT, SOD = test: Western blot of CAT and SOD; assay type: cell-based, human
Protocol: as §2

HepG2 cells [2] = test: LC3 immunofluorescence staining; assay type: cell-based, human; details: HepG2, 24 h, compared with vehicle
Protocol: Then, coverslips were incubated for 1 h with the anti-LC3 rabbit antibody (1:100, in 1% bovine albumin serum) and then with an anti-rabbit tetramethylrhodamine-conjugated antibody (1:100, in 0.1% bovine serum albumin) (Thermo Fisher Scientific). After washing, coverslips were mounted with Mowiol and observed with an Olympus CKX41 fluorescent microscope (Olympus Italia srl, Segrate, Italy) and processed with the Olympus CKX41 software (cellSens Dimension 1.5).

XBP1 = XBP1 splicing detection by conventional PCR; assay type: cell-based, human; details: HepG2, 4 h, 100 μM
Protocol: To obtain cDNA, 1 μg of RNA was retro-transcribed employing the QuantiTect Reverse Transcription Kit (Qiagen, Milan, Italy). Finally, a conventional PCR was performed to amplify the unspliced and the spliced form for XBP1, with the following primers: 5′-[…]-3′ and 5′-[…]-3′, as previously reported. Amplified cDNA was run on a 2.5% agarose gel and stained with ethidium bromide.

GRP78 [3] = test: Western blot of GRP78 in Caco-2 cells; assay type: cell-based, human; details: Caco-2, 24 h
Protocol: as §2

p53 = test: Western blot of p53; assay type: cell-based, human; details: HepG2, 24 h, higher concentrations used
Protocol: as §2

HepG2 cells [4] = test: Apoptosis: cleaved caspase 3 Western blot and TUNEL assay; assay type: cell-based, human; details: HepG2, caspase-3 8 h, TUNEL 24 h
Protocol: as §2
Microscope observation and image acquisition were performed as described above.

GRP78 [5] = test: Western blot of GRP78 in MRC5 cells; assay type: cell-based, human; details: MRC5, 24 h
Protocol: as §2

GRP78 [6] = test: Western blot of GRP78 in HepG2 cells; assay type: cell-based, human; details: HepG2, 24 h, higher induction at 100 μM
Protocol: as §2

type 2 transglutaminase = test: Type 2 transglutaminase activity in Caco-2 cells in Ca2+-free condition; assay type: cell-based, human; details: Caco-2, Ca2+-free condition, preliminary
Excerpt: It has often been reported that apoptosis induced by EDCs can be caused by an unsolved ER-stress.

CCCCCCCCCc1ccc(O)cc1 [4-NP, 4-nonylphenol]
IC50 (HEK 293 cells): 62.6 µM
IC50 (MRC5 cells): 75.8 µM
IC50 (HaCat cells): 77.4 µM
IC50 (Caco-2 cells): 93.3 µM
IC50 (HepG2 cells [1]): 83.3 µM

CCCCCCCCc1ccc(O)cc1 [4-OP, 4-octylphenol]
p62 level (p62, LC3-II; HepG2, 4 h): decreased
LC3-II level on adding Baf A1 (p62, LC3-II; HepG2, 4 h 4-OP then further 20 h Baf A1 50 nM): further accumulation of LC3-II
LC3-II level (p62, LC3-II; HepG2, 24 h): increased
CAT level (CAT, SOD; HepG2, 4 h): did not vary
SOD level (CAT, SOD; HepG2, 4 h, 100 μM): reduction
SOD expression level (CAT, SOD; HepG2, 18 h, 25 μM, vs vehicle-treated cells): lower
SOD expression level (CAT, SOD; HepG2, 18 h, 50 μM): increased
CAT protein level (CAT, SOD; HepG2, 18 h, 50 μM, compared to the control): significantly more expressed
autophagosomes (LC3 perinuclear puncta) (HepG2 cells [2]): accumulation of autophagosomes
XBP1 spliced form (XBP1): splicing was clear
GRP78 expression (GRP78 [3]): less evident
p53 expression (p53): decreased
apoptosis (cleaved caspase 3, chromatin fragmentation) (HepG2 cells [4]): able to induce apoptosis
GRP78 expression (GRP78 [5]): markedly induced
GRP78 expression (GRP78 [6]): increase in a dose-dependent manner

C[C@H](CCC(=O)O)C[C@H](C)C[C@H](C)C(=O)/C=C(\O)[C@H](C)C[C@H](C)C/C=C/[C@@H](C)[C@@H](O)[C@@H](C)[C@@H](O)C[C@@H]1CC[C@@](C)([C@H]2CC[C@@](C)([C@@H](C)O)O2)O1 [ionomycin]
increase of transglutaminase activity (type 2 transglutaminase): did not increase
